Assays:
[1] = target: T1, acetyl-CoA synthase (ACS) (Carboxydothermus hydrogenoformans, UniProt Q3ACS4); assay: ITC of CODH–ACS complex with […] Ti(III)–EDTA, […] °C; type: binding
T1 construct: gene acsB; CODH–ACS complex, heterologously expressed in E. coli; with CO-dehydrogenase (CODH)
T1 sequence (Q3ACS4 1-732): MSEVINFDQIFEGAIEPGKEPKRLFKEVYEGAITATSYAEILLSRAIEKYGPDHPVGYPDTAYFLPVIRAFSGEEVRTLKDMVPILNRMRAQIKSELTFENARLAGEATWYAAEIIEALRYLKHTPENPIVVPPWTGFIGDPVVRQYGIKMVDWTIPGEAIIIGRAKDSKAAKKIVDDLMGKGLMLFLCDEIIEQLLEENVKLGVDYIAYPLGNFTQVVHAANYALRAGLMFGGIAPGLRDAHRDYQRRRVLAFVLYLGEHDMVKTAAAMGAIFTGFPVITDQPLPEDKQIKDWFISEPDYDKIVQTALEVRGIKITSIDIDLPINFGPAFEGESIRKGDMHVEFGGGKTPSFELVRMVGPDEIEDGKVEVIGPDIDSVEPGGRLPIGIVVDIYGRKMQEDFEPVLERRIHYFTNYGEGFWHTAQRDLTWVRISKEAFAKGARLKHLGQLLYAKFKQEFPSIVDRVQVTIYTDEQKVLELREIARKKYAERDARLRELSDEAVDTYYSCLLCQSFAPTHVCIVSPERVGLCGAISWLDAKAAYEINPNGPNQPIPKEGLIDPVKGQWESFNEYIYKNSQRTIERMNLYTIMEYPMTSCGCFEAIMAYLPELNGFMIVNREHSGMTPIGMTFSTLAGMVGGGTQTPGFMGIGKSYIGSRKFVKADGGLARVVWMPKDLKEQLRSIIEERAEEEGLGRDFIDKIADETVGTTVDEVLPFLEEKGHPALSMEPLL

[2] = target: T1, acetyl-CoA synthase (ACS); assay: ITC of methyl transfer to cluster A (two-substrate-two-product fit); type: binding

| Molecule | Kd [1] [µM] | ITC of methyl transfer to cluster A (two-substrate-two-product fit) [2] |
| --- | --- | --- |
| CC(C)(COP(=O)(O)OP(=O)(O)OC[C@H]1O[C@@H](n2cnc3c(N)ncnc32)[C@H](O)[C@@H]1OP(=O)(O)O)[C@@H](O)C(=O)NCCC(=O)NCCS [CoA] | < 88 | – |
| methyl cobinamide | – | 341 |

— publication PMC12289521, “Ligand binding to a Ni–Fe cluster orchestrates conformational changes of the CO-dehydrogenase–acetyl-CoA synthase complex” (Nature Catalysis, 2025)
